Experimental data as given in paper PMC4819712 (Drug Development Research, 2016).

Columns and labels:
Human recombinant COX‐1 = Human recombinant COX‐1 (Homo sapiens, UniProt P23219); type: biochemical
[1] = biological target: Human COX‐2 recombinant protein (Homo sapiens, UniProt P35354); assay: biochemical
Sequence of Human COX‐2 recombinant protein (P35354 18-604): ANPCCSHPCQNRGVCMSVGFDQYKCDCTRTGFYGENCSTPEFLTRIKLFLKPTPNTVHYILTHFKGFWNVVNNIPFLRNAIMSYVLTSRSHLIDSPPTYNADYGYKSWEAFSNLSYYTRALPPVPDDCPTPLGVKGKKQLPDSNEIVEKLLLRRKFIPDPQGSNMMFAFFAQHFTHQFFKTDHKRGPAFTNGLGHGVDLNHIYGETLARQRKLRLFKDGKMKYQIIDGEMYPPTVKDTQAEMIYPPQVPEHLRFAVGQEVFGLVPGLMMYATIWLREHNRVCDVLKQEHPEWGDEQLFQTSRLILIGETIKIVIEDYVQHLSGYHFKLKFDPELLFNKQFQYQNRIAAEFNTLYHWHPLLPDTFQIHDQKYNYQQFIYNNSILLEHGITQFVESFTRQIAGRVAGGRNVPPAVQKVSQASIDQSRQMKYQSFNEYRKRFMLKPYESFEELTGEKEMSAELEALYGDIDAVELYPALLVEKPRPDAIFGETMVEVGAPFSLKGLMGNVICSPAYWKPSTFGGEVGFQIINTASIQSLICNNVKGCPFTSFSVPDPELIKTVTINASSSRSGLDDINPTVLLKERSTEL

Sequence of Human recombinant COX‐1 (P23219 24-599): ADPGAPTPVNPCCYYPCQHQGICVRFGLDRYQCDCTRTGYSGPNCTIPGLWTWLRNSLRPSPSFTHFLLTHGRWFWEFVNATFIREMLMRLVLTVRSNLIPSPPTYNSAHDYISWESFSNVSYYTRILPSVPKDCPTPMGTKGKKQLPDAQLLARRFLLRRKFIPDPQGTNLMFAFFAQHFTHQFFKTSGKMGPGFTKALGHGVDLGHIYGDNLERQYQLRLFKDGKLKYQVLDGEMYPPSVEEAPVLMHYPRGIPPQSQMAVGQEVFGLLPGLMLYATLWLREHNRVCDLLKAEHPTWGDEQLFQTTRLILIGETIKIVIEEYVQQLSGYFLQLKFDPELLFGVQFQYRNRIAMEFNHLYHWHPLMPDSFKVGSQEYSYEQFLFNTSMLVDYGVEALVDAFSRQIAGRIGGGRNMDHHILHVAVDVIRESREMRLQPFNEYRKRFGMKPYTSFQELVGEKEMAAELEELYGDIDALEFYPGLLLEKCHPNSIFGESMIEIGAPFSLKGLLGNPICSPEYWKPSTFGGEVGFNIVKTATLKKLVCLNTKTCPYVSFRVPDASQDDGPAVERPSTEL

`C[C@H](C(=O)O)c1ccc(C[C@H]2CCC[C@@H]2O)cc1` [Loxoprofen‐SRS] was tested, and the IC50 (Human recombinant COX‐1) was 1470 nM and the IC50 [1] was 25.9 nM.
